In US8937152B2, “Non-selective somatostatin analogues” (Italfarmaco SpA, priority 2007, dated 2015):
Read-outs that look alike come from different tables or passages of the source. *1 amine or outer side, *2 acyl side, *3 side chain or, on linkers, in order; H or OH if unused. Where a SMILES comes first, the peptide text is derived from it. Side-chain parts run from the residue outwards. [ ]: non-standard residue; d: D form. The star is where a group is joined. Ethylenediamine = C(CN[*:2])N[*:1]; Hyp = O=C(O)[C@@H]1C[C@@H](O)CN1; Phg = N[C@H](C(=O)O)c1ccccc1; CO = O=C([*:1])[*:2]; Bn = c1ccc(C*)cc1

Assays:
hSSTR3 = target: T1, hSSTR3 (Homo sapiens, UniProt P32745); test: Binding assay, displacement of 3-[125I]iodotyrosyl11 Somatostatin-14; settings: cell membranes, 60 min at 25° C.
T1 construct: expressed in transfected cells
T1 sequence (P32745 whole entry): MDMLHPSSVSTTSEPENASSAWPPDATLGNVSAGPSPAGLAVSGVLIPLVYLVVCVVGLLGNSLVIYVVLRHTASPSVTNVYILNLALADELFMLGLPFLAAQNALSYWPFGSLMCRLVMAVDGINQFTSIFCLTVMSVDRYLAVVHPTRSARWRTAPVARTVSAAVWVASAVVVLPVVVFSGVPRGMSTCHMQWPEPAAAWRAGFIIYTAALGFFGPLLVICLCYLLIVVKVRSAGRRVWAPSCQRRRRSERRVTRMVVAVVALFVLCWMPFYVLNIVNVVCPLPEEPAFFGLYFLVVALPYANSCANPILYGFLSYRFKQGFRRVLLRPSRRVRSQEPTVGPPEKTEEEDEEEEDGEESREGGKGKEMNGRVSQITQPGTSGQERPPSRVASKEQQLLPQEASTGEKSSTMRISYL
Experimental: (§1) The binding assays were carried out, as is explained below, by using preparations of recombinant human receptors, hSSTR1, hSSTR2, hSSTR3 and hSSTR5, obtained from cell membranes (for example CHO) transfected according to standard methods.
(§2) The membranes are incubated in duplicate for 60 min. at 25° C. with 3-[125I]iodotyrosyl11Somatostatin-14 (Amersham, IM161, 2000 Ci/mmol) as radioligand and with increasing concentrations of the compound under examination, in 25 mM Hepes (pH 7.4) buffer, containing 5 mM MgCl2, 1 mM CaCl2, 10 μg/ml of Saponin, 0.5% BSA. The incubation is terminated by means of filtration with a Filtermate Harvester (Perkin Elmer) through GF/B filters, which are then washed 6 times with buffer (25 mM Hepes pH 7.4, 5 mM MgCl2, 1 mM CaCl2). The radioactivity of the filters is measured in a TopCount™ or MicroBeta™ reader for 1 min/well after having added the Microscint 20 liquid scintillation (Packard) and incubated for 15 min. in an orbital stirrer. The results are expressed as specific binding percentage of the radio-marked ligand, in the presence of increasing concentrations of the compound under examination. The IC50 values were calculated by using the “GraphPad Prism” software (IC50=concentration of compound necessary for obtaining half of the maximum inhibition, in the competitive binding test described above).

hSSTR5 = target: T2, hSSTR5 (Homo sapiens, UniProt P35346); test: as above; settings: cell membranes, 60 min at 25° C.
T2 construct: expressed in transfected cells
T2 sequence (P35346 whole entry): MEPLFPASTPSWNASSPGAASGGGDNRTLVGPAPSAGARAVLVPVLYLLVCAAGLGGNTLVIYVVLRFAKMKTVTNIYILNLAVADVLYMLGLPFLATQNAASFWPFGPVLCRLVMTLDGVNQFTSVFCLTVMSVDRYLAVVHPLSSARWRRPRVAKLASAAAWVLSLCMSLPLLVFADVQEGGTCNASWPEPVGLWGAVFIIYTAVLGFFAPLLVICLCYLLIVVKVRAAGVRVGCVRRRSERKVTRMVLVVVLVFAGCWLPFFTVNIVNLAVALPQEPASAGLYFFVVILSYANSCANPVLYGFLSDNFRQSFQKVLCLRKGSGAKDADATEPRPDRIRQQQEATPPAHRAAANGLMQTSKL
Experimental: as §1, §2

hSSTR2 = target: T3, hSSTR2 (Homo sapiens, UniProt P30874); test: as above; settings: cell membranes, 60 min at 25° C.
T3 construct: expressed in transfected cells
T3 sequence (P30874 whole entry): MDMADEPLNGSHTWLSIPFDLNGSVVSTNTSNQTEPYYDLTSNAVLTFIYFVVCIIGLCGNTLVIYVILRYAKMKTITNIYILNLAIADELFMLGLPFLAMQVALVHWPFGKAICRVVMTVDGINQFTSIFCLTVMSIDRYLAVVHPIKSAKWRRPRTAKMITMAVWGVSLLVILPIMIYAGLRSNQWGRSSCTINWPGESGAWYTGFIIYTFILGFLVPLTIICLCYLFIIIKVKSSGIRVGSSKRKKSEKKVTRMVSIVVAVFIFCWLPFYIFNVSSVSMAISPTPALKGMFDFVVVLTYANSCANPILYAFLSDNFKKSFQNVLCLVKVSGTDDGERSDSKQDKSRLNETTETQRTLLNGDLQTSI
Experimental: as §1, §2

hSSTR1 = target: T4, hSSTR1 (Homo sapiens, UniProt P30872); test: as above; settings: recombinant human receptor, cell membranes; 60 min at 25° C.
T4 construct: expressed in transfected cells
T4 sequence (P30872 whole entry): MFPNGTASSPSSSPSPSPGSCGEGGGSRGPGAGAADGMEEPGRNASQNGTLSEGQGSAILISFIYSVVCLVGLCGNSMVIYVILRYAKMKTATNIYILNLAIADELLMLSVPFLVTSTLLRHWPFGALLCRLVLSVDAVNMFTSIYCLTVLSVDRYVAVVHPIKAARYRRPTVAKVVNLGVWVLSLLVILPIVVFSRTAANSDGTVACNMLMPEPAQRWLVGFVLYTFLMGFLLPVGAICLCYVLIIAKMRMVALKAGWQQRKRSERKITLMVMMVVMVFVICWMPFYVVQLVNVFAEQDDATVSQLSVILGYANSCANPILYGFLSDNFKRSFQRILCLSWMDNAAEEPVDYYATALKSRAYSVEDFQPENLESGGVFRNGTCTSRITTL
Experimental: as §1, §2

[1] = test system: release of GH stimulated by Nembutal; test: In vivo inhibition of the GH production stimulated by barbiturates (Nembutal); design: species or system rat; settings: male rats, subcutaneous
Experimental: Assay for the In Vivo Inhibition of the GH Production, Stimulated by Barbiturates
The compounds are administrated subcutaneously, at different doses, in male rats (CD, Harlan Italy). Blood samples are collected, at different times, one hour after the animals were anesthetised by means of intraperitoneal administration of Nembutal (60 mg/kg); the hormone levels are measured by means of the ELISA test. In the animals treated with the compounds of the invention, at doses from 5 to 250 μg/kg, there is a decrease of the produced GH levels.

[2] = Pharmacokinetic profile in rats, subcutaneous; format: in vivo; settings: rat, sc, male rats, 1 mg/kg, plasma; for half-life: read-out: t½ (converted)
Experimental: Assay for the Pharmacokinetic Profile
The compounds of the invention also show, in rats, a very favourable pharmacokinetic profile. The pharmacokinetic profile was measured by administering the compounds to male rates, subcutaneously, at the dose of 1 mg/kg (CD, Sprague Dawley; 200-250 g). Blood samples were collected, at different times, up to 72 hours after the administration. The concentrations of the compound under examination were measured in the separated plasma samples, by means of an LC-MS/MS analysis method and the values were processed according to a non-compartmental model using the software “Kinetica”. In the following table, the main pharmacokinetic parameters obtained with the compound of example 1 are reported, compared with those obtained with PASIREOTIDE, another stable analogue of somatostatin, currently in clinical development phase (PASIREOTIDE was prepared by following the process described in WO2002010192).

[3] = comparison value, source and conditions not stated; cited from earlier work
rat pituitary cells = settings: 3 h
[4] = recombinant human receptor, read-out: IC50 (nM) hSSTR3
[5] = recombinant human receptor, read-out: IC50 (nM) hSSTR5
[6] = recombinant human receptor, read-out: IC50 (nM) hSSTR2

Row | Molecule | IC50 (hSSTR3; [4]) | IC50 (hSSTR5; [5]) | IC50 (hSSTR2; [6]) | IC50 (hSSTR1) | also measured
1 | COc1cc(CC2NC(=O)[C@H](Cc3ccccc3)NC(=O)[C@@H]3C[C@@H](OC(=O)NCCN)CN3C(=O)[C@H](Cc3ccccc3)NC(=O)[C@H](Cc3ccc(OCc4ccccc4)cc3)NC(=O)[C@H](CCCCN)NC2=O)c(OC)c2ccccc12 (single isomer, unassigned) [Example 9, cyclo[Tyr(Bn)-Phe-Pro(4-OCONH(CH2)2NH2)-Phe-(D,L)1,4-MNal-Lys]] | 2.34 nM | 1.9 nM | 9.9 nM | 32.4 nM | 
2 | Fmoc-(D/L) 3-(3,8-dimethoxy-Naphthalene-2-yl)-Alanine [Example 1] |  |  |  |  | reduction of the release of GH ([1]; 5 μg/kg, six hours after the administration): 55%; reduction of GH, duration ([1]; 125 μg/kg, 24 hours after the administration): still measurable
3 | NCCCC[C@@H]1NC(=O)[C@@H](Cc2c[nH]c3ccccc23)NC(=O)[C@H](c2ccccc2)NC(=O)[C@@H]2C[C@@H](OC(=O)NCCN)CN2C(=O)[C@H](Cc2ccccc2)NC(=O)[C@H](Cc2ccc(OCc3ccccc3)cc2)NC1=O [PASIREOTIDE, reference compound] (cyclo([Hyp]([CO-Ethylenediamine])[Phg][dW]KY(Bn)F)) |  |  |  |  | AUC ([2]; Sprague Dawley (CD)): 2800 ng·h/mL; AUC(0-t) ([2]; Sprague Dawley (CD)): 2780 ng·h/mL; Cmax ([2]; Sprague Dawley (CD)): 668 ng/mL; MRT ([2]; Sprague Dawley (CD)): 4.87 h; Tmax ([2]; Sprague Dawley (CD)): 2 h; half-life ([2]; Sprague Dawley (CD)): 24.4 h
4 | COc1cc(CC2NC(=O)[C@H](Cc3ccccc3)NC(=O)[C@@H]3C[C@@H](OC(=O)NCCN)CN3C(=O)[C@H](Cc3ccccc3)NC(=O)[C@H](Cc3ccc(OCc4ccccc4)cc3)NC(=O)[C@H](CCCCN)NC2=O)c(OC)c2ccccc12 (single isomer, unassigned) [Example 8, cyclo[Tyr(Bn)-Phe-Pro(4-OCONH(CH2)2NH2)-Phe-(D,L)1,4-MNal-Lys]] | 2.92 nM | 9.78 nM | 26.6 nM | 19.1 nM | 
5 | COc1cc2cccc(OC)c2cc1CC1NC(=O)[C@H](Cc2ccc(O)cc2)NC(=O)[C@@H]2C[C@@H](OC(=O)NCCN)CN2C(=O)[C@H](Cc2ccccc2)NC(=O)[C@H](Cc2ccc(OCc3ccccc3)cc2)NC(=O)[C@H](CCCCN)NC1=O (stereo partly shown) [Example 14, cyclo[Tyr(Bn)-Phe-Pro(4-OCONH(CH2)2NH2)-Tyr-(D,L)3,8MNal-Lys]] |  |  |  |  | IC50 (hSSTR3; IC50 (nM) hSSTR3, recombinant human receptor): 0.35 nM; IC50 (hSSTR5; IC50 (nM) hSSTR5, recombinant human receptor): 0.36 nM; IC50 (hSSTR2; IC50 (nM) hSSTR2, recombinant human receptor): 1.8 nM
6 | CNCCNC(=O)O[C@@H]1C[C@H]2C(=O)N[C@@H](Cc3ccccc3)C(=O)NC(Cc3cc4c(OC)cccc4cc3OC)C(=O)N[C@@H](CCCCN)C(=O)N[C@@H](Cc3ccc(OCc4ccccc4)cc3)C(=O)N[C@@H](Cc3ccccc3)C(=O)N2C1 (single isomer, unassigned) [Example 7, cyclo[Tyr(Bn)-Phe-Pro (4-OCONH(CH2)2NHCH3)-Phe-(D,L)3,8MNal-Lys]] | 1.33 nM | 0.97 nM | 9.2 nM | 5.8 nM | 
7 | C[C@@H](O)[C@@H]1NC(=O)[C@H](CCCCN)NC(=O)[C@@H](Cc2c[nH]c3ccccc23)NC(=O)[C@H](Cc2ccccc2)NC(=O)[C@@H](NC(=O)[C@H](N)Cc2ccccc2)CSSC[C@@H](C(=O)N[C@H](CO)[C@@H](C)O)NC1=O [OCTREOTIDE] |  |  |  |  | t½ [3]: about 2 hours
8 | COc1cc2cccc(OC)c2cc1CC1NC(=O)[C@H](Cc2ccccc2)NC(=O)[C@@H]2C[C@@H](OC(=O)NCCN)CN2C(=O)[C@H](Cc2ccccc2)NC(=O)[C@H](COCc2ccccc2)NC(=O)[C@H](CCCCN)NC1=O (single isomer, unassigned) [Example 15, cyclo[Ser(Bn)-Phe-Pro(4-OCONH(CH2)2NH2)-Phe-(D,L)3,8MNal-Lys]] | 1.8 nM | 1.62 nM | 7 nM | 1 nM | 
9 | COc1cc2cccc(OC)c2cc1CC1NC(=O)[C@H](Cc2ccccc2)NC(=O)[C@@H]2C[C@@H](OC(=O)NCCN)CN2C(=O)[C@H](Cc2ccccc2)NC(=O)[C@H](Cc2ccc(OCc3ccccc3)cc2)NC(=O)[C@H](CCCCN)NC1=O (single isomer, unassigned) [Example 5, cyclo[Tyr(Bn)-Phe-Pro(4-OCONH(CH2)2NH2)-Phe-(D,L)3,8MNal-Lys]] | 0.31 nM | 0.42 nM | 9.3 nM | 10.8 nM | IC50 (rat pituitary cells): 1.3 nM; AUC ([2]; CD, Sprague Dawley): 2880 ng·h/mL; AUC(0-t) ([2]; CD, Sprague Dawley): 2730 ng·h/mL; Cmax ([2]; CD, Sprague Dawley): 224 ng/mL; MRT ([2]; CD, Sprague Dawley): 19 h; Tmax ([2]; CD, Sprague Dawley): 4 h; half-life ([2]; CD, Sprague Dawley): 31.3 h
10 | COc1ccc(OC)c(CCC2NC(=O)[C@H](Cc3ccccc3)NC(=O)[C@@H]3C[C@@H](OC(=O)NCCN)CN3C(=O)[C@H](Cc3ccccc3)NC(=O)[C@H](Cc3ccc(OCc4ccccc4)cc3)NC(=O)[C@H](CCCCN)NC2=O)c1 (single isomer, unassigned) [Example 6, cyclo[Tyr(Bn)-Phe-Pro(4-OCONH(CH2)2NH2)-Phe-(D,L)2,5 MhPhe-Lys]] | 0.52 nM | 0.64 nM | 25.8 nM | 10 nM | 
